Experimental data reported in US20180371551A1, “MAT2A INHIBITORS FOR TREATING MTAP NULL CANCER” (Agios Pharmaceuticals, Inc., priority 2015, published 2018).

Experiments:
[1] = test system: HCT116 MTAP wt vs. HCT116 MTAP−/− cells; assay: EPZ015666 dose response, growth of HCT116 isogenic pair; format: cell-based; details: 5 days, titrated from 20 μM top dose
Source text: (§1) FIGS. 2A-F. PRMT5 is selectively essential in MTAP-null cells upon genetic ablation but not pharmacologic targeting. Immunoblot analysis of the indicated proteins in HCT116 MTAP^−/− and HCT116 MTAP wt cells stably expressing PRMT5 shRNA and p-LVX empty vector control (EV). (B) PRMT5 is selectively essential in MTAP-null cells in vitro. Percent growth of HCT116 wt and HCT116 MTAP^−/− cells upon PRMT5 knockdown (+dox), with or without PRMT5 wt or R368A mutant rescue, versus no knockdown (no dox) control in a 10-day soft agar colony growth assay. Colonies were stained with crystal violet and then quantified using Li-Cor (mean±SD, n=3). (C) Immunoblot analysis of the indicated proteins in HCT116 MTAP^−/− and HCT116 MTAP wt cells stably expressing PRMT5 shRNA and shRNA-resistant PRMT5 wt cDNA or PRMT5 R368A catalytically-dead mutant cDNA. (D) Immunoblot analysis of symmetric di-methylarginine marks in HCT116 MTAP^−/− and HCT116 MTAP wt cells stably expressing PRMT5 shRNA and p-LVX empty vector control (EV), or PRMT5 shRNA and shRNA-resistant PRMT5 wt cDNA or PRMT5 R368A catalytically-dead mutant cDNA. (E) Dose response analysis with EPZ015666 titrated from 20 μM top dose in HCT116 MTAP wt vs. HCT116 MTAP^−/− cells. Cells were treated with EPZ015666 for 5 days and their response to the compound is measured as fold growth of treated cells vs. untreated control (mean±SD, n=3). […]

[2] = test system: PRMT5-dependent di-methylarginine marks in HCT116 isogenic pair; assay: Immunoblot of PRMT5-dependent di-methylarginine marks; format: cell-based; details: MTAP−/− and wt HCT116 cells, 5 days
Source text: as §1

PRMT5 = target: T1, PRMT5 (Homo sapiens, UniProt O14744); assay: N-methyltransferase in vitro activity assay; format: biochemical
T1 construct: purchased Eurofins CEREP Panlabs
Experimental: MTA has been reported to inhibit activity of protein methyltransferases (Enouf et al., 1979). To test this notion directly, we performed an in vitro biochemical screen assessing enzyme activity of 33 different N-methyltransferases following treatment with 10 μM and 100 μM MTA (FIG. 4A). […] Next, we analyzed the MTA Ki for PRMT5, PRMT4, and a diverse subset of methyltransferases (FIG. 4C). In vitro screening of methyltransferase inhibition by MTA, as well as SAM Km measurements, was conducted using a panel of methyltransferase assays at Eurofins CEREP Panlabs.

T1 sequence (O14744 whole entry): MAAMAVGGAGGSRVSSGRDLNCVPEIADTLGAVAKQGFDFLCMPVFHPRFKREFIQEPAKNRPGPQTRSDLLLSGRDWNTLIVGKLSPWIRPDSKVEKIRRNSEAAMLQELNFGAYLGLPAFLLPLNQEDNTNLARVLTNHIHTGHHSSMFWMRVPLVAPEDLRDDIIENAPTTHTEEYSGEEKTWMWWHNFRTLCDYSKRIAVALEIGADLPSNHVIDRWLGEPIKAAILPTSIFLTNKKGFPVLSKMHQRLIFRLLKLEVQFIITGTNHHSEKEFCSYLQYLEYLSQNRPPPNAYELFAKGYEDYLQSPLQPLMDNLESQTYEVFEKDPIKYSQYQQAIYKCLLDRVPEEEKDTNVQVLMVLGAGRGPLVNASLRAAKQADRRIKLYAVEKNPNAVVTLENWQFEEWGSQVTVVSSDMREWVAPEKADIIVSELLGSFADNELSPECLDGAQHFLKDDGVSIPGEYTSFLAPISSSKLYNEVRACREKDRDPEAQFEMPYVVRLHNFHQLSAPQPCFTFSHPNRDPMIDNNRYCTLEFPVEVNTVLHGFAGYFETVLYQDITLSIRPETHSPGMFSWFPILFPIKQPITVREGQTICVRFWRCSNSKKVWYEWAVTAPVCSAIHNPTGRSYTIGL
T1 sequence (Q9BQA1 whole entry partner): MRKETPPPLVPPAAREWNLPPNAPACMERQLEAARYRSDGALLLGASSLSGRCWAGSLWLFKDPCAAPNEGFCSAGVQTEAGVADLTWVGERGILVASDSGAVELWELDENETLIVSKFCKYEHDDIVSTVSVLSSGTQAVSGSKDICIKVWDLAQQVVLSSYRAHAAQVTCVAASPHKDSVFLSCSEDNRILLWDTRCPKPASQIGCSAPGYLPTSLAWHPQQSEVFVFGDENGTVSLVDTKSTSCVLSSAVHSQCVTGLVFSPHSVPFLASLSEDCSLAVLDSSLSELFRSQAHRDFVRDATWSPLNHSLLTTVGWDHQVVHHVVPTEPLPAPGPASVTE

Structure (SMILES)	MTAP selectivity of growth inhibition [1]	MTAP selectivity of growth inhibition ([1]; listed as EPZ-015666)	PRMT5 activity inhibition (PRMT5-dependent di-methylarginine marks in total cell lysates) [2]	IC50 (PRMT5; biochemical assay, read-out: PRMT5 IC50 for MTA) [µM]	Ki (PRMT5; read-out: MTA Ki for PRMT5) [µM]
O=C(NC[C@H](O)CN1CCc2ccccc2C1)c1cc(NC2COC2)ncn1 [EPZ015666]	not selective for the MTAP-deficient genetic background	did not lead to selective growth inhibition in MTAP-null cells	equal degree of PRMT5 activity inhibition	–	–
CSC[C@H]1O[C@@H](n2cnc3c(N)ncnc32)[C@H](O)[C@@H]1O [MTA, methylthioadenosine]	–	–	–	3	0.46
